What was measured:
rabbit aorta rings = experiment: Vasorelaxant action in vitro (phenylephrine-contracted rabbit aorta rings); settings: Oryctolagus cuniculus; concentration reducing phenylephrine-induced contraction of rabbit aorta rings by 50%
Description: B-1. Vasorelaxant Action In Vitro
Rabbits are stunned by a blow to the neck and exsanguinated. The aorta is removed, freed from adhering tissue and divided into rings of a width of 1.5 mm. The rings are placed individually under an initial tension in 5 ml organ baths with Krebs-Henseleit solution which is at 37° C., is gassed with carbogen and has the following composition (in each case mM): sodium chloride 119; potassium chloride: 4.8; calcium chloride dihydrate: 1; magnesium sulfate heptahydrate: 1.4; potassium dihydrogenphosphate: 1.2; sodium bicarbonate: 25; glucose: 10. The contractile force is determined with Statham UC2 cells, amplified and digitalized using A/D transducers (DAS 1802 HC, Keithley Instruments Munich), and recorded in parallel on linear recorders. To obtain a contraction, phenylephrine is added to the bath cumulatively in increasing concentration. After several control cycles, the substance to be investigated is added in each further run in increasing dosage in each case, and the height of the contraction achieved is compared with the height of the contraction reached in the last preceding run. This is used to calculate the concentration needed to reduce the magnitude of the control value by 50% (IC50 value). The standard administration volume is 5 μl; the DMSO content in the bath solution corresponds to 0.1%.

[1] = system: recombinant guanylate cyclase reporter cell line; experiment: Effect on a recombinant guanylate cyclase reporter cell line; assay type: cell-based; settings: MEC=minimum effective concentration
Description: B-2. Effect on a Recombinant Guanylate Cyclase Reporter Cell Line
The cellular activity of the compounds according to the invention is determined using a recombinant guanylate cyclase reporter cell line, as described in F. Wunder et al., Anal. Biochem. 339, 104-112 (2005).

[2] = Pharmacokinetic parameters following intravenous administration in rats; assay type: in vivo, male Wistar rats; settings: intravenous administration of 0.3 mg/kg
Description: B-4. Determination of Pharmacokinetic Parameters Following Intravenous and Oral Administration:
The pharmacokinetic parameters of the substance are determined in male CD-1 mice, male Wistar rats and female beagles. The administration volume is 1 ml/kg for mice, 5 ml/kg for rats and 0.5 ml/kg for dogs. Intravenous administration is via a formulation of species-specific plasma/DMSO (99/1) in the case of mice and rats and via water/PEG400/ethanol (50/40/10) in the case of dogs. The taking of blood from rats is simplified by inserting a silicone catheter into the right Vena jugularis externa prior to substance administration. The surgical intervention takes place one day prior to the experiment with isofluran anesthesia and administration of an analgetic (carprofen 5 mg/kg s.c.). Substance administration is as i.v. bolus in the case of mice and via a 15-minute infusion in the case of rats and dogs. Removal of blood is after 0, 0.033, 0.083, 0.17, 0.5, 1, 2, 3, 4, 6, 7 and 24 hours in the case of mice and after 0, 0.083, 0.25, 0.28, 0.33, 0.42, 0.75, 1, 2, 3, 4, 6, 7 and 24 hours in the case of dogs and rats. […]
An internal standard (ZK 228859) is added to the unknown samples, calibration samples and QCs, and the protein is precipitated using excess acetonitrile. […] The substances are quantified by peak heights or areas using extracted ion chromatograms of specific MRM experiments.
The plasma concentration/time plots determined are used to calculate the pharmacokinetic parameters such as AUC, Cmax, t1/2 (half life) and CL (clearance) employing the validated pharmacokinetic calculation program KinEx (Vers. 2.5 and 3).
Since the substance quantification is performed in plasma, it is necessary to determine the blood/plasma distribution of the substance in order to be able to adjust the pharmacokinetic parameters correspondingly. […] After centrifugation at 1000 g, the plasma concentration is measured (see above) and determined by calculating the quotient of the cb/cp values.
Following intravenous administration of 0.3 mg/kg of example 1 in rats, the following values were recorded: […]

Structure (SMILES)	IC50 (rabbit aorta rings) [nM]	AUCnorm [2] [kg·h/L]	clearance ([2]; male, Wistar, rat, blood, read-out: CL blood (converted)) [mL/min/kg]	half-life ([2]; male, Wistar, rat, plasma) [h]	MEC [1] [µM]
CCOC(=O)Nc1c(N)nc(-n2nc(Cc3ccccc3F)c3ncc(F)cc32)nc1N [Example 2, Ethyl {4,6-diamino-2-[6-fluoro-3-(2-fluorobenzyl)-1H-pyrazolo[4,3-b]pyridin-1-yl]pyrimidin-5-yl}carbamate]	763	–	–	–	0.3
COC(=O)Nc1c(N)nc(-n2nc(Cc3ccccc3F)c3ncc(F)cc32)nc1N [Example 1, Methyl {4,6-diamino-2-[6-fluoro-3-(2-fluorobenzyl)-1H-pyrazolo[4,3-b]pyridin-1-yl]pyrimidin-5-yl}carbamate]	1380	4.62	5.5	1.38	0.3

Second part, led by results:

IC50 (rabbit aorta rings) [nM]	AUCnorm [2] [kg·h/L]	clearance ([2]; male, Wistar, rat, blood, read-out: CL blood (converted)) [mL/min/kg]	half-life ([2]; male, Wistar, rat, plasma) [h]	Structure (SMILES)	MEC [1] [µM]
286	–	–	–	CCOC(=O)N(C)c1c(N)nc(-n2nc(Cc3ccccc3F)c3ncc(F)cc32)nc1N [Example 8, Ethyl {4,6-diamino-2-[6-fluoro-3-(2-fluorobenzyl)-1H-pyrazolo[4,3-b]pyridin-1-yl]pyrimidin-5-yl}methylcarbamate]	0.1
194	–	–	–	COC(=O)N(C)c1c(N)nc(-n2nc(Cc3ccccc3F)c3ncc(F)cc32)nc1N [Example 7, Methyl {4,6-diamino-2-[6-fluoro-3-(2-fluorobenzyl)-1H-pyrazolo[4,3-b]pyridin-1-yl]pyrimidin-5-yl}methylcarbamate]	0.1
178	–	–	–	COC(=O)N(CC(F)(F)F)c1c(N)nc(-n2nc(Cc3ccccc3F)c3ncc(F)cc32)nc1N [Example 13, Methyl {4,6-diamino-2-[6-fluoro-3-(2-fluorobenzyl)-1H-pyrazolo[4,3-b]pyridin-1-yl]pyrimidin-5-yl}(2,2,2-trifluoroethyl)carbamate]	0.1

Source: patent US9309239B2, “Substituted 6-fluoro-1H-pyrazolo[4,3-b]pyridines and use thereof” (BAYER INTELLECTUAL PROPERTY GMBH, priority 2010, dated 2016)
